ChEMBL document CHEMBL3352763, “Selective inhibition of human carbonic anhydrases by novel amide derivatives of probenecid: synthesis, biological evaluation and molecular modelling studies” (Bioorg Med Chem, 2014)

Columns and labels:
Carbonic anhydrase 2 = Carbonic anhydrase 2 (Homo sapiens, UniProt P00918); test: Inhibition of recombinant human carbonic anhydrase 2 after 15 mins by stopped flow CO2 hydration assay
Carbonic anhydrase 9 = Carbonic anhydrase 9 (Homo sapiens, UniProt Q16790); test: Inhibition of recombinant human carbonic anhydrase 9 after 15 mins by stopped flow CO2 hydration assay
Carbonic anhydrase 1 = Carbonic anhydrase 1 (Homo sapiens, UniProt P00915); test: Inhibition of recombinant human carbonic anhydrase 1 after 15 mins by stopped flow CO2 hydration assay
Carbonic anhydrase 12 = Carbonic anhydrase 12 (Homo sapiens, UniProt O43570); test: Inhibition of recombinant human carbonic anhydrase 12 after 15 mins by stopped flow CO2 hydration assay
Sequence of Carbonic anhydrase 12 (O43570 whole entry): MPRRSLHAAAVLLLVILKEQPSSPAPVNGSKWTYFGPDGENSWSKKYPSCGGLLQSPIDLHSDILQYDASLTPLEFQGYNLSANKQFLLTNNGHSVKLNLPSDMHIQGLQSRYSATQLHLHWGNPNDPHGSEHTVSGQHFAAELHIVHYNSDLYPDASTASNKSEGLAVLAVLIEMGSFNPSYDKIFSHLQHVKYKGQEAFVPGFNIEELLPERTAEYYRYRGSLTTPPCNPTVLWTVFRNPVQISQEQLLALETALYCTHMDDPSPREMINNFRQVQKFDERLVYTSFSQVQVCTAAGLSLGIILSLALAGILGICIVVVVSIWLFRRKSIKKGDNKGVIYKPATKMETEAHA

Sequence of Carbonic anhydrase 1 (P00915 whole entry): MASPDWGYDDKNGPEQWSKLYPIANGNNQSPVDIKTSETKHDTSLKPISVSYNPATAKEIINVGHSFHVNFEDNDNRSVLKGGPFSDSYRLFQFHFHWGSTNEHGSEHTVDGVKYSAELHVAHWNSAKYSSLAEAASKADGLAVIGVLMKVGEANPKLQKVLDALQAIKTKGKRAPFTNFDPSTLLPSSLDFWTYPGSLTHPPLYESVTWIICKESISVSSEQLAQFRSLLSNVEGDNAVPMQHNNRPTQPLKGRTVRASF

Structure (SMILES)	Ki (Carbonic anhydrase 2) [µM]	Ki (Carbonic anhydrase 9) [µM]	Ki (Carbonic anhydrase 1) [µM]	Ki (Carbonic anhydrase 12) [µM]
CCCN(CCC)S(=O)(=O)c1ccc(C(=O)Nc2ccccc2)cc1	> 10	0.171		
CCCN(CCC)S(=O)(=O)c1ccc(C(=O)Nc2ccccn2)cc1	> 10	0.228		
CCCN(CCC)S(=O)(=O)c1ccc(C(=O)Nc2nncs2)cc1	> 10	0.216		
CCCN(CCC)S(=O)(=O)c1ccc(C(=O)Nc2cccc(Cl)c2)cc1	> 10	0.198		
CCCN(CCC)S(=O)(=O)c1ccc(C(=O)Nc2ccc(Cl)cc2)cc1	> 10	0.243		
CCCN(CCC)S(=O)(=O)c1ccc(C(=O)Nc2cccc([N+](=O)[O-])c2)cc1	> 10	0.265		
CCCN(CCC)S(=O)(=O)c1ccc(C(=O)Nc2ccccc2[N+](=O)[O-])cc1	> 10			
CCCN(CCC)S(=O)(=O)c1ccc(C(=O)Nc2ccccc2N)cc1	> 10	0.223		

Second part, the compound after the results:

Ki (Carbonic anhydrase 2) [µM]	Ki (Carbonic anhydrase 9) [µM]	Ki (Carbonic anhydrase 1) [µM]	Ki (Carbonic anhydrase 12) [µM]	Structure (SMILES)
> 10	0.165			CCCN(CCC)S(=O)(=O)c1ccc(C(=O)NC)cc1
> 10	0.234			CCCN(CCC)S(=O)(=O)c1ccc(C(=O)NC2CCCCC2)cc1
> 10	0.26			CCCN(CCC)S(=O)(=O)c1ccc(C(=O)NC2CCCCC2C)cc1 (configuration not stated)
> 10	0.251			CCCN(CCC)S(=O)(=O)c1ccc(C(=O)NCCN2CCOCC2)cc1
0.431	0.36	> 10	1.24	CCCN(CCC)S(=O)(=O)c1ccc(C(=O)O)cc1 [PROBENECID]
